From ChEMBL document CHEMBL5029199, “Increased Molecular Flexibility Widens the Gap between K i and K d values in Screening for Retinoid X Receptor Modulators” (ACS Med Chem Lett, 2022)
Calls of active or inactive are those of the source. No cut-off for these calls is given here.

Legend:
[1] = biological target: T1, Retinoic acid receptor RXR-alpha (Homo sapiens, UniProt P19793); experiment: Binding affinity to human RXRalpha-LBD expressed in African green monkey COS-1 cells assessed as dissociated constant incubated for 2 hrs by tryptophan fluorescence quenching assay; type: cell-based
T1 sequence (P19793 whole entry): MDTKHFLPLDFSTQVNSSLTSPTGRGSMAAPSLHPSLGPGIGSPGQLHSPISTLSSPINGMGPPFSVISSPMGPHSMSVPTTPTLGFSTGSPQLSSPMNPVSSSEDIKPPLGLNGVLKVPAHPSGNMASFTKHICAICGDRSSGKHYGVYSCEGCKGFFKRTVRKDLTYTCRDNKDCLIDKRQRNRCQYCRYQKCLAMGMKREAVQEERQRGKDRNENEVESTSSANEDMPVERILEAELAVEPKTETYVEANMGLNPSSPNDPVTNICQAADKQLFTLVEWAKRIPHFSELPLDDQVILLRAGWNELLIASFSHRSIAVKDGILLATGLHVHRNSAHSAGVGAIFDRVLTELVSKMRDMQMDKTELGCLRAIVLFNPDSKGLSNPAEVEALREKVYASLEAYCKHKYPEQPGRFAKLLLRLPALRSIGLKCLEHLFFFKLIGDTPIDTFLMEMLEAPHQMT

[2] = biological target: T1, Retinoic acid receptor RXR-alpha; experiment: Displacement of NEt-C343 from human RXRalpha-LBD expressed in African green monkey COS-1 cells assessed as inhibition constant incubated for 2 hrs by competitive binding assay; type: cell-based
[3] = organism: Homo sapiens; experiment: Ratio of Ki for displacement of NEt-C343 from human RXRalpha-LBD expressed in African green monkey COS-1 cells to Kd for binding affinity to human RXRalpha-LBD expressed in African green monkey COS-1 cells; type: cell-based
[4] = Drug uptake in African green monkey COS-1 cells at 10 uM measured after 24 hrs by trypan blue staining based LC-MS/MS analysis; type: ADME, cell-based; conditions: chlorocebus aethiops, cos-1, 24 h
[5] = biological target: T2, Retinoic acid receptor RXR-alpha (Homo sapiens) (UniProt P19793); experiment: Antagonist activity at human RXR-alpha expressed in African green monkey COS-1 cells assessed as reduction in NEt-TMN-induced receptor transactivation by measuring shift in concentration-response curve at 1 uM by luciferase reporter gene assay
T2 sequence (whole entry): T1 sequence (P19793 whole entry)

[6] = biological target: T1, Retinoic acid receptor RXR-alpha; experiment: Antagonist activity at human RXR-alpha expressed in African green monkey COS-1 cells assessed as reduction in NEt-TMN-induced receptor transactivation at 1 uM by luciferase reporter gene assay; type: cell-based; conditions: read-out: pA2 (converted)
[7] = biological target: T1, Retinoic acid receptor RXR-alpha; experiment: Antagonist activity at human RXR-alpha expressed in African green monkey COS-1 cells assessed as reduction in bexarotene-induced receptor transactivation at 1 uM by luciferase reporter gene assay; type: cell-based; conditions: read-out: pA2 (converted)

| Compound | Kd [1] [nM] | Ki [2] [nM] | Ratio [3] | Drug uptake [4] [pg/10^4 cells] | Activity [5] | Kb [6] [nM] | Kb [7] [nM] |
| --- | --- | --- | --- | --- | --- | --- | --- |
| CCCCCOc1cc2c(cc1-n1nnc3cc(C(=O)O)ccc31)C(C)(C)CCC2(C)C | 764 | 3540 | 4.63 | 10.2 | inactive |  |  |
| CCCCCCOc1cc2c(cc1-n1nnc3cc(C(=O)O)ccc31)C(C)(C)CCC2(C)C | 705 | 3160 | 4.48 | 81.6 | inactive |  |  |
| CCCCCCOc1cc2c(cc1-n1c(C(F)(F)F)nc3cc(C(=O)O)ccc31)C(C)(C)CCC2(C)C |  |  |  | 55.1 |  |  |  |
| CCCCCOc1cc2c(cc1-n1c(C(F)(F)F)nc3cc(C(=O)O)ccc31)C(C)(C)CCC2(C)C | 277 | 384 | 1.39 | 14.8 |  | 26.3 | 8.71 |
